Data from patent US11306084B2, “Integrin antagonists” (Saint Louis University, priority 2016, dated 2022).
Where a name gives a salt, the structure may show the parent alone.

Legend:
Type in all cases: binding
[1] = target: T1, Recombinant human integrin ανβ6 (Homo sapiens, UniProt P06756+P18564); assay: Solid Phase Receptor Assay (SPRA) for ανβ6 function; details: plate-bound human LAP; read-out: αvβ6 SPRA IC50
T1 construct: purchased R&D Systems 3817-AV
Description: E. Solid Phase Receptor Assay (SPRA) for ανβ6 Function
Wells were washed 3 times with 150 μL TBS+, and then 150 μL of blocking buffer (TBS+ with 1% bovine serum albumin, Sigma A7906) was added. The plate was incubated for 1 hr at 37° C., and then washed 3× with TBS+ buffer. […] Compounds were diluted to 20 μM and then 1 μL was added to each well of the plate according to a standard template with each sample repeated in triplicate. After incubation for two hours at room temperature, the plate was washed 3× with 150 μL of TBS+ buffer. To each well, 50 μL of biotinylated anti-αν antibody (R&D Systems, BAF1219) at 0.5 μg/mL in TBS+/0.1% BSA were added and the plate was covered and incubated for 1 hr at room temperature. After washing the plate 3× with 150 μL of TBS+ buffer, 50 μL of streptavidin-conjugated horseradish peroxidase (R&D Systems, DY998) diluted in TBS+ blocking buffer were added to the wells and the plate incubated for 20 min at room temperature. The plate was washed 3× with TBS+ buffer followed by 50 μL of TMB substrate (Sigma T4444) added to each well in the dark and the plate incubated for 10 min at room temperature. 25 μL of 1.0 M phosphoric acid was added as a stop solution and the plates were read at 450 nm using a Spectramax plate reader.

[2] = target: T2, Recombinant human integrin ανβ1 (Homo sapiens, UniProt P05556+P06756); assay: Solid Phase Receptor Assay (SPRA) for ανβ1 function; details: plate-bound human fibronectin; read-out: αvβ1 SPRA IC50
T2 construct: purchased R&D Systems 6579-AV
Description: B. Solid Phase Receptor Assay (SPRA) for ανβ1 Function
Wells were washed 3 times with 150 μL TBS+ and then 150 μL of blocking buffer (TBS+ with 1% bovine serum albumin, Sigma A7906) was added. The plate was incubated for 1 hr at 37° C. and then washed 3× with TBS+ buffer. […] Compounds were diluted to 20 μM and 1 μL was added to each well of the plate according to a standard template with each sample repeated in triplicate. After incubation for two hours at room temperature, the plate was washed 3 with 150 μL of TBS+ buffer. To each well, 50 μL of biotinylated anti-αν antibody (R&D Systems, BAF1219) at 1 μg/mL in TBS+/0.1% BSA were added and the plate covered and incubated for 1 hr at room temperature. After washing the plate 3× with 150 μL of TBS+ buffer, 50 μL of streptavidin-conjugated horseradish peroxidase (R&D Systems, DY998) diluted in TBS+ blocking buffer were added to the wells and the plate incubated for 20 min at room temperature. The plate was washed 3× with TBS+ buffer followed by 50 μL of TMB substrate (Sigma, T4444) added to each well in the dark and the plate incubated for 25 min at room temperature. 25 μL of 1.0 M phosphoric acid was added as a stop solution and the plates were read at 450 nm using a Spectramax plate reader.

[3] = target: T3, Recombinant human integrin ανβ3 (Homo sapiens, UniProt P05106+P06756); assay: Solid Phase Receptor Assay (SPRA) for ανβ3 function; details: plate-bound human vitronectin; read-out: αvβ3 SPRA IC50
T3 construct: purchased R&D Systems 3050-AV
Description: C. Solid Phase Receptor Assay (SPRA) for ανβ3 Function
Wells were washed 3 times with 150 μL TBS+ and then 150 μL of blocking buffer (TBS+ with 1% bovine serum albumin, Sigma A7906) was added. The plate was incubated for 1 hr at 37° C. and then washed 3× with TBS+ buffer. […] Compounds were diluted to 20 μM and then 1 μL was added to each well of the plate according to a standard template with each sample repeated in triplicate. After incubation for two hours at room temperature, the plate was washed 3× with 150 μL of TBS+ buffer. To each well, 50 μL of biotinylated anti-αν antibody (R&D Systems, BAF1219) at 0.5 μg/mL in TBS+/0.1% BSA were added and the plate covered and incubated for 1 hr at room temperature. After washing the plate 3× with 150 μL of TBS+ buffer, 50 μL of streptavidin-conjugated horseradish peroxidase (R&D Systems, DY998) diluted in TBS+ blocking buffer were added to the wells and the plate incubated for 20 min at room temperature. The plate was washed 3× with TBS+ buffer followed by 50 μL of TMB substrate (Sigma, T4444) added to each well in the dark and the plate was incubated for 25 min at room temperature. 25 μL of 1.0 M phosphoric acid was added as a stop solution and the plates were read at 450 nm using a Spectramax plate reader.

[4] = target: T4, Recombinant human integrin ανβ5 (Homo sapiens, UniProt P06756+P18084); assay: Solid Phase Receptor Assay (SPRA) for ανβ5 function; details: plate-bound human vitronectin; read-out: αvβ5 SPRA IC50
T4 construct: purchased R&D Systems 2528-AV
Description: D. Solid Phase Receptor Assay (SPRA) for ανβ5 Function
Wells were washed 3 times with 150 μL TBS+ and then 150 μL of blocking buffer (TBS+ with 1% bovine serum albumin, Sigma A7906) was added. The plate was incubated for 1 hr at 37° C. and then washed 3× with TBS+ buffer. […] Compounds were diluted to 20 μM and then 1 μL was added to each well of the plate according to a standard template with each sample repeated in triplicate. After incubation for two hours at room temperature, the plate was washed 3× with 150 μL of TBS+ buffer. To each well, 50 μl of biotinylated anti-αν antibody (R&D Systems, BAF1219) at 0.5 μg/mL in TBS+/0.1% BSA at 0.5 μg/mL were added and the plate covered and incubated for 1 hr at room temperature. After washing the plate 3 with 150 μL of TBS+ buffer, 50 μL of streptavidin-conjugated horseradish peroxidase (R&D Systems, DY998) diluted in TBS+ blocking buffer were added to the wells and the plate incubated for 20 min at room temperature. The plate was washed 3× with TBS+ buffer followed by 50 μL of TMB substrate (Sigma T4444) added to each well in the dark and the plate incubated for 5 min at room temperature. 25 μL of 1.0 M phosphoric acid was added as a stop solution and the plates were read at 450 nm using a Spectramax plate reader.

[5] = target: T5, Recombinant human integrin ανβ8 (Homo sapiens, UniProt P06756+P26012); assay: Solid Phase Receptor Assay (SPRA) for ανβ8 function; details: plate-bound human LAP; read-out: αvβ8 SPRA IC50
T5 construct: purchased R&D Systems 4135-AV
Description: F. Solid Phase Receptor Assay (SPRA) for ανβ8 Function
Wells were washed 3 times with 150 μL TBS+ and then 150 μL of blocking buffer (TBS+ with 1% bovine serum albumin, Sigma A7906) was added. The plate was incubated for 1 hr at 37° C. and then washed 3× with TBS+. […] Compounds were diluted to 20 μM and 1 μL was added to each well of the plate according to a standard template with each sample repeated in triplicate. After incubation for two hours at room temperature, the plate was washed 3× with 150 μL of TBS+. To each well, 50 μL of biotinylated anti-αν antibody (R&D Systems, BAF1219) at 1 μg/mL in TBS+/0.1% BSA were added and the plate was covered and incubated for 1 hr at room temperature. After washing the plate 3× with 150 μL. of TBS+ buffer, 50 μL of streptavidin-conjugated horseradish peroxidase (R&D Systems, DY998) diluted in TBS+ blocking buffer were added to the wells and the plate incubated for 20 min at room temperature. The plate was washed 3× with TBS+ followed by 50 μL of TMB substrate (Sigma T4444) added to each well in the dark and the plate incubated for 10 min at room temperature. 25 μL of 1.0 M phosphoric acid was added as a stop solution and the plates were read at 450 nm using a Spectramax plate reader.

[6] = target: T6, Recombinant human integrin α5β1 (Homo sapiens, UniProt P05556+P08648); assay: Solid Phase Receptor Assay (SPRA) for α5β1 function; details: plate-bound human fibronectin
T6 construct: purchased R&D Systems 3230-A5
Description: A. Solid Phase Receptor Assay (SPRA) for α5β1 Function
Wells were washed 3 times with 150 μL TBS+ and then 150 μL of blocking buffer (TBS+ with 1% bovine serum albumin, Sigma A7906) was added. The plate was incubated for 1 hr at 37° C. and then washed 3× with TBS+ buffer. […] Compounds were diluted to 20 μM and then 1 μL was added to each well of the plate according to a standard template with each sample repeated in triplicate. After incubation for two hours at room temperature, the plate was washed 3× with 150 μL of TBS+ buffer. To each well, 50 μL of biotinylated anti-α5 antibody (R&D Systems, BAF1864) at 0.5 μg/mL in TBS+/0.1% BSA were added and the plate covered and incubated for 1 hr at room temperature. After washing the plate 3× with 150 μL of TBS+ buffer, 50 μL of streptavidin-conjugated horseradish peroxidase (R&D Systems, DY998) diluted in TBS+ blocking buffer were added to the wells and the plate incubated for 20 min at room temperature. The plate was washed 3× with TBS+ buffer followed by 50 μL of room temperature TMB substrate (Sigma, T4444) added to each well in the dark and the plate incubated for 25 min at room temperature. 25 μL of 1.0 M phosphoric acid was added as a stop solution and the plates were read at 450 nm using a Spectramax plate reader.

T2 sequence (P06756 31-992 limits assumed): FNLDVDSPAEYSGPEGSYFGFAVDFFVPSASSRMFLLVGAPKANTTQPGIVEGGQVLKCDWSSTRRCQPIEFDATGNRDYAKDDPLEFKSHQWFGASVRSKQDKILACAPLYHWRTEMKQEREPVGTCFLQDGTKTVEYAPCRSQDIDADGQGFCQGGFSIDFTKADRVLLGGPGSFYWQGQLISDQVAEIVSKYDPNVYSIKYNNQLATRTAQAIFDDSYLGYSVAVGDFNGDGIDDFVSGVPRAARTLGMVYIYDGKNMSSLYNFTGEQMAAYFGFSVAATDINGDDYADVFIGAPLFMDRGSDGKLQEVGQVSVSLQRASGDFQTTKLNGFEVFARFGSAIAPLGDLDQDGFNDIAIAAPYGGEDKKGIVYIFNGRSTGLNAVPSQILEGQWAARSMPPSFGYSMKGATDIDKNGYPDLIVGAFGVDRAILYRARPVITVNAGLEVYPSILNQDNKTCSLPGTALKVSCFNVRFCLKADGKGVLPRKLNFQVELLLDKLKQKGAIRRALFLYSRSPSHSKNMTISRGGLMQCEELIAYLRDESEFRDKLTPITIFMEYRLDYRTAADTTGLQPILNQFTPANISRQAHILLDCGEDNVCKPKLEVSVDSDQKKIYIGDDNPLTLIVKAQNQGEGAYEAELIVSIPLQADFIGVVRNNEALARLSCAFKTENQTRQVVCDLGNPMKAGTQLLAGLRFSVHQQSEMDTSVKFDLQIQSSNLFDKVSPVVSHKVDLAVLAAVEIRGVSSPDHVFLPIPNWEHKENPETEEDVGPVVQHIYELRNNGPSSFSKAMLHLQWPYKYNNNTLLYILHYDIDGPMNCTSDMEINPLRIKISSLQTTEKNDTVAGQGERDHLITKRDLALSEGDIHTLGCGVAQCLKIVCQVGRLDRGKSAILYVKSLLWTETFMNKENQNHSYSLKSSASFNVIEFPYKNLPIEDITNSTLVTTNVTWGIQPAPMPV
T2 sequence (P05556 21-728 limits assumed): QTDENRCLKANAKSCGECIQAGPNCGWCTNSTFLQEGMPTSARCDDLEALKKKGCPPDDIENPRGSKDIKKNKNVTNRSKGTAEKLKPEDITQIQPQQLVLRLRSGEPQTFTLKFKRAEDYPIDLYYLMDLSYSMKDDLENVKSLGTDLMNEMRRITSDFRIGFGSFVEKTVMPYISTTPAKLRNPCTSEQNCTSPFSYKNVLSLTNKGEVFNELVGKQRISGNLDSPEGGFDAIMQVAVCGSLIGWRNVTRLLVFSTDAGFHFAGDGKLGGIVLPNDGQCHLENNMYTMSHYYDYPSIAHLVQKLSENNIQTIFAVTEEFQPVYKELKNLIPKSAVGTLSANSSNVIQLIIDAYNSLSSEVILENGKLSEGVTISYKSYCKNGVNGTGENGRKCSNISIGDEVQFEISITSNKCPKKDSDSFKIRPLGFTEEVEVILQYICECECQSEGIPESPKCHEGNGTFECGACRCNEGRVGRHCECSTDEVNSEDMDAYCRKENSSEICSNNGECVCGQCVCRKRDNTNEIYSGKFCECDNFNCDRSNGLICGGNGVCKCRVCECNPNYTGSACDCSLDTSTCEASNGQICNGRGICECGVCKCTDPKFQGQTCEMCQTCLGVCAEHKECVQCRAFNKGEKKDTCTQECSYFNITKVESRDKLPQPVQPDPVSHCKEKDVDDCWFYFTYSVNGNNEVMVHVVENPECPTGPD
T5 sequence (P06756 31-992 limits assumed): as the sequence (P06756 31-992 limits assumed) above
T5 sequence (P26012 43-684 limits assumed): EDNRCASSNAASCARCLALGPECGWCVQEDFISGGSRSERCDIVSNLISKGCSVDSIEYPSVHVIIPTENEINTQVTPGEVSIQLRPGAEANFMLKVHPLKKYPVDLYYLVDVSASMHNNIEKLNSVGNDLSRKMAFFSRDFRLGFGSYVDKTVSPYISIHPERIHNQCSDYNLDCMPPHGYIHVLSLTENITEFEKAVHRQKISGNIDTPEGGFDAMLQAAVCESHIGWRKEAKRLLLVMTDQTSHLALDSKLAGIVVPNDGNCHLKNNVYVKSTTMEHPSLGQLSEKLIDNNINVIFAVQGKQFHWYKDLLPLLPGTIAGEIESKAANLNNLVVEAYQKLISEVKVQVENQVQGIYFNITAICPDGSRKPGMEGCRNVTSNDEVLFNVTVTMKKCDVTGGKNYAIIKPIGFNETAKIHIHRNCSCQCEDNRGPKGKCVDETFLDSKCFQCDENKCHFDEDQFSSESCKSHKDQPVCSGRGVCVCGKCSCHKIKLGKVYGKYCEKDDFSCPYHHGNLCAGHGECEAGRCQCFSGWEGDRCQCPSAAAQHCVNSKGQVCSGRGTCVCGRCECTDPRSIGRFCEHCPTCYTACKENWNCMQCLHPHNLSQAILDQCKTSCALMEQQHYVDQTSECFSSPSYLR
T1 sequence (P06756 31-992 limits assumed): as the sequence (P06756 31-992 limits assumed) above
T1 sequence (P18564 22-707 limits assumed): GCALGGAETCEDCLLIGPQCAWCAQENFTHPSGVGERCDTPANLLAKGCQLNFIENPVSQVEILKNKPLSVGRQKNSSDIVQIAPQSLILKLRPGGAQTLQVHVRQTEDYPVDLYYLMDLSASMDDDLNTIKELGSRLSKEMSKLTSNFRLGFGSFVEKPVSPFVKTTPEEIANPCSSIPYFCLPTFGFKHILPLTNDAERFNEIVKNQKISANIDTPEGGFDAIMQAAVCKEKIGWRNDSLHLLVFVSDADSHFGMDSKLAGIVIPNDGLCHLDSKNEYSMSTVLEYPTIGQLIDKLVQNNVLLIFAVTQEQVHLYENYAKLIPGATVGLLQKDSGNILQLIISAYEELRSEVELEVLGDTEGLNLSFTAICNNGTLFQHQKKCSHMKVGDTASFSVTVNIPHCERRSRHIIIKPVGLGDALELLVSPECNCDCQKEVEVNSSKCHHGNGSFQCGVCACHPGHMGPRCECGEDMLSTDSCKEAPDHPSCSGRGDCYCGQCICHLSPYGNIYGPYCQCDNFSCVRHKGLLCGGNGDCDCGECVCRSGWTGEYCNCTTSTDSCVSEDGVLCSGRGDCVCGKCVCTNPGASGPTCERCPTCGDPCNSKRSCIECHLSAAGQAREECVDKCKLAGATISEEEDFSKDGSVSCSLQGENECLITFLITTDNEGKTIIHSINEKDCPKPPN
T6 sequence (P08648 42-995 limits assumed): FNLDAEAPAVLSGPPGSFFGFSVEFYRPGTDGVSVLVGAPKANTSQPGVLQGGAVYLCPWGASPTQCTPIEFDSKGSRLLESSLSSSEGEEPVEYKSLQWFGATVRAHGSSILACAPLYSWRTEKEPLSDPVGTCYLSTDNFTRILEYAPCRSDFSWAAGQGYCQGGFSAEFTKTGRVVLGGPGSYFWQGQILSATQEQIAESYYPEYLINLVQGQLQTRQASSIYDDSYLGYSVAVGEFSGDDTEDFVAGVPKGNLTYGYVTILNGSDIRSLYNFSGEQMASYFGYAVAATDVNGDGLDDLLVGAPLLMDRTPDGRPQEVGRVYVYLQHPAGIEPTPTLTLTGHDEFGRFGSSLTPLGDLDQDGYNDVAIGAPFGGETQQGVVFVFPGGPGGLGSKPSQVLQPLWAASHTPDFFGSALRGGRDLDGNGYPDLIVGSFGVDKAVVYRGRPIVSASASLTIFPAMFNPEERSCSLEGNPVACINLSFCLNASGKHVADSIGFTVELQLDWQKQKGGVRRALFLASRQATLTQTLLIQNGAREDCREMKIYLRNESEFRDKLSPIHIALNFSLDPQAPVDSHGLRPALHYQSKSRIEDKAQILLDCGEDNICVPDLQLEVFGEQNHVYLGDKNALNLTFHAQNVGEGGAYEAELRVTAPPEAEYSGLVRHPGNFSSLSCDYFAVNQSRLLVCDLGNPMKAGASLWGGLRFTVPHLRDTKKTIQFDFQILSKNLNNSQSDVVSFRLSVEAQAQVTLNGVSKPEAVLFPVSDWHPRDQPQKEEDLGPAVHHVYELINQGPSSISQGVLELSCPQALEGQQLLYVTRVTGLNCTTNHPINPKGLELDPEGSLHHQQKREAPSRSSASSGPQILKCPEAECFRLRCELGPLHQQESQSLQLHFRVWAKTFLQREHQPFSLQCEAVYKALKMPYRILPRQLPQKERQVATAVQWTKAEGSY
T6 sequence (P05556 21-728 limits assumed): as the sequence (P05556 21-728 limits assumed) above
T3 sequence (P06756 31-992 limits assumed): as the sequence (P06756 31-992 limits assumed) above
T3 sequence (P05106 27-718 limits assumed): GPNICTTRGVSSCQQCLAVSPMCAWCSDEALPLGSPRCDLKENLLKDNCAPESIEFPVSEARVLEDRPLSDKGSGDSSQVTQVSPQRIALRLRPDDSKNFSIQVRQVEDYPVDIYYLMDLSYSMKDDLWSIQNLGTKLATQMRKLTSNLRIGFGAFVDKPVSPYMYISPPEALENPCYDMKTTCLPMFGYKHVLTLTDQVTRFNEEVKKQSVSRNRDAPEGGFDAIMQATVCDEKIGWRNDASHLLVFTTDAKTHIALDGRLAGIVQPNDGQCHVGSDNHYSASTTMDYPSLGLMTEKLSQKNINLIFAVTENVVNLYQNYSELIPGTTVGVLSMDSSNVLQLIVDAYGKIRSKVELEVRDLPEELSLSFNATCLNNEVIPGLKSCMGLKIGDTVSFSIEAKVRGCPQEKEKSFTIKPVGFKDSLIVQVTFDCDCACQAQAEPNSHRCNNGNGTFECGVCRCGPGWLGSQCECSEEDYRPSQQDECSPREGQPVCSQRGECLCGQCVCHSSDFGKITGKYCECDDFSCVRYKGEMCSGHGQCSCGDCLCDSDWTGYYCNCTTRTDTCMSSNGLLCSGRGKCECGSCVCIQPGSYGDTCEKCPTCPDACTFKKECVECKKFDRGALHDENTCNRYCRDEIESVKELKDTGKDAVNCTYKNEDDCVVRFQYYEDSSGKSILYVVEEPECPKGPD

| SMILES | IC50 [1] | IC50 [2] | IC50 [3] | IC50 [4] | IC50 [5] | IC50 [6] |
| --- | --- | --- | --- | --- | --- | --- |
| Cn1nc(CC(CC(=O)O)c2cc(C#N)cc(C(F)(F)F)c2)cc1OCCc1ccc2c(n1)NCCC2 (stereo not drawn) [Example 12, 3-(3-cyano-5-(trifluoromethyl)phenyl)-4-(1-methyl-5-(2-(5,6,7,8-tetrahydro-1,8-naphthyridin-2-yl)ethoxy)-1H-pyrazol-3-yl)butanoic Acid] | 27 nM | 4.5 nM | 4.3 nM | 0.1 nM | 14 nM |  |
| CC(C)Oc1ccc(C(C)(C)C)cc1C(CC(=O)O)Cc1cc(OCCc2ccc3c(n2)NCCC3)n(C)n1 (stereo not drawn) [Example 35, 3-(5-tert-butyl-2-isopropoxy-phenyl)-4-[1-methyl-5-[2-(5,6,7,8-tetrahydro-1,8-naphthyridin-2-yl)ethoxy]pyrazol-3-yl]butanoic Acid Trifluoroacetate] | 1100 nM | 7.6 nM |  |  | 120 nM | 75 nM |
